tested on: Saccharomyces cerevisiae ABC16-Green Monster; experiment: growth inhibition at single dose (up to 150 µM), below the 70% cut-off for dose-response; higher = more potent; conditions: 18 h; 30 °C; YPD
In short: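 Percent growth inhibition is the reported value. Drug-sensitive S. cerevisiae ABC16-Green Monster cultures in log phase (OD600 0.1–0.2), 200 µl per well in 96-well plates, received each library compound once at 150 µM in biological duplicates, with untreated cultures run alongside. Growth was followed by OD600 at 0 h and after 18 h at 30 °C. Dose-response was not done for compounds below 70% in both replicates.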

Row | SMILES | growth inhibition at single dose [%]
1 | CCOC(=O)c1cnc2ccc(CC)cc2c1O | < 70
2 | CC1Cc2cc(C3=NNC(=NC4CC4)SC3)ccc2N1S(C)(=O)=O (stereo not drawn) | < 70
3 | Nc1nc(Nc2cccc(F)c2)nc2ccccc12 | < 70
4 | Cc1ccc(Nc2nc(-c3ccccn3)cs2)cc1 | < 70
5 | N=c1n(CCN2CCCCC2)c2ccccc2n1CC(O)c1cccc(Br)c1 (stereo not drawn) | < 70
6 | O=C(C1CCCCC1)N1CC(=O)N2CCc3ccccc3C2C1 (stereo not drawn) | < 70
7 | CC(C)(C)C1CCC(CC2=C(O)C(=O)c3ccccc3C2=O)CC1 (stereo not drawn) | < 70
8 | N#CCNC(=O)c1ccc(-c2ccnc(Nc3ccc(N4CCOCC4)cc3)n2)cc1 [Momelotinib] | < 70
9 | Clc1ccc2[nH]c3c(NCCCN4CCOCC4)ncnc3c2c1 | < 70
10 | N#Cc1ccc(NCCNc2nc3ccccc3s2)nc1 | < 70
11 | Cc1cc2nc(NC(=O)C(C)(C)C)nc(Cl)c2n1Cc1ccc(Cl)cc1 | < 70
12 | COc1ccc(C2=NN(C3CCCCCC3)C(=O)[C@@H]3CC=CC[C@H]23)cc1OCCCCOc1ccc(-c2nn[nH]n2)cc1 | < 70
13 | CN(CCO)c1ccc(C(=O)c2ccc(N(C)CCO)cc2)cc1 | < 70
14 | CC(Oc1ccc2ccc(=O)oc2c1)C(=O)N1CCc2ccccc21 (stereo not drawn) | < 70
15 | Cc1ccccc1-n1c(C)cc(/C=C(\C#N)C(=O)NCC2CCCO2)c1C (stereo not drawn) | < 70
16 | CC(C)(C)C(=O)Nc1ccc(-c2nc3ncccc3o2)c(Cl)c1 | < 70
17 | COc1ccc2nc(C)cc(OCC(=O)Nc3ccccc3OC)c2c1 | < 70
18 | CC1(c2ccccc2)Nc2ccccc2-c2nc3ccccc3n21 (stereo not drawn) | < 70
19 | Cc1ccc(Cl)cc1N1CCN(CCCNC(=O)C2CCN(c3nc4ccccc4[nH]3)CC2)CC1 | < 70
20 | CCNC(=O)c1nn(CC2CC2)c2c1CN(C(=O)c1cc(-c3ccccc3F)n[nH]1)CC2 | < 70
21 | COc1ccc(Cl)cc1NC(=O)CN(C)C(=O)c1cnn(-c2ccccc2)n1 | < 70
22 | CS(=O)(=O)c1ccccc1C(=O)N(Cc1ccccc1)c1ccccc1 | < 70
23 | Nc1ccc(-c2nc3cc(Oc4ccc(Oc5ccc6[nH]c(-c7ccc(N)cc7)nc6c5)cc4)ccc3[nH]2)cc1 | < 70
24 | CCN(CC)CCNc1ncnc2c1[nH]c1ccc(Br)cc12 | < 70

Row | SMILES | growth inhibition at single dose [%]
25 | COc1cc2cc(C(=O)Nc3ccccc3)c(N)nc2cc1OC | < 70
26 | N#Cc1ccc(Cc2cnc(NC(=O)c3ccc4ncsc4c3)s2)cc1 | < 70
27 | CCOC(=O)c1cnc2ccc(OC)cc2c1Nc1ccc(N2CCN(C)CC2)cc1 | < 70
28 | c1ccc(-c2[nH]c3ccccc3c2C(c2ccccn2)N2CCCC2)cc1 (stereo not drawn) | < 70
29 | OC(c1cn2cc(-c3ccccc3)nc2s1)(C(F)(F)F)C(F)(F)F | < 70
30 | c1ccc2c(NCCc3c[nH]c4ccccc34)c3ccccc3nc2c1 | < 70
31 | CC(C)(C)C(=O)Nc1ccc(C(=O)Nc2cccc(-c3nc4ccccc4[nH]3)c2)cc1 | < 70
32 | COc1cc(/C=N/NC(=O)c2ccccc2NS(=O)(=O)c2cccs2)ccc1OCCC(C)C | < 70
33 | O=C1CC(O)(C(F)(F)C(F)(F)F)Oc2ccccc21 (stereo not drawn) | < 70
34 | Cn1c(C(=O)c2cccc3ccccc23)nc2ccccc21 | < 70
35 | Cc1ccnc(NC(c2cccc(OCc3ccccc3)c2)c2ccc3cccnc3c2O)c1 (stereo not drawn) | < 70
36 | O=C(Nc1ncc(Cc2ccc(Br)cc2)s1)c1ccc2n[nH]nc2c1 | < 70
37 | CCC(Sc1nc2ccccc2o1)C(=O)Nc1nnc(C)s1 (stereo not drawn) | < 70
38 | Cc1ccc(S(=O)(=O)N2CCN(C(=O)c3cc(-c4ccccc4)[nH]n3)CC2)cc1 | < 70
39 | COc1cccc(CC(=O)N2CCC(n3c(C)nc4ccc(F)cc43)CC2)c1 | < 70
40 | COc1ccc(C)c2sc(N(Cc3cccnc3)C(=O)c3ccc(C#N)cc3)nc12 | < 70
41 | COc1cccc(Cn2c(Oc3ccccc3)nc3c2c(=O)n(C)c(=O)n3C)c1 | < 70
42 | N#Cc1ccc(NC(=O)Cn2ncc(Cl)c(Cl)c2=O)cc1 | < 70
43 | COc1ccc(Br)cc1C1Nc2ccc3ccccc3c2C2=C1C(=O)CC(c1ccccc1)C2 (stereo not drawn) | < 70
44 | CC1CCN(Cc2ccc(NC(=O)c3cc4ccc5cccnc5c4[nH]3)cc2)CC1 | < 70
45 | O=C(NCCCN1CCC(N2CCCCC2)CC1)C1=Cc2cc(Br)ccc2OC1 | < 70
46 | COc1ccc(-c2nonc2NC(=O)c2cccc(Cl)c2)cc1OC | < 70
47 | CNc1snc(C)c1C(=O)NCCOc1ccc(OC)cc1 | < 70
48 | COc1ccc(Nc2cc(C)nc(NCc3ccccc3)n2)cc1 | < 70

Row | SMILES | growth inhibition at single dose [%]
49 | COC(=O)c1ccc(F)cc1NS(=O)(=O)c1cccc(-c2cnn(Cc3ccccc3)c2)c1 | < 70
50 | COC(=O)c1c(C)[nH]c(C2=NNC(=NC3CC3)SC2)c1C | < 70
51 | O=C1Nc2ccc(Br)cc2C12NCCc1c2[nH]c2ccccc12 (stereo not drawn) | < 70
52 | O=C(Nc1cnc2ccccc2c1)c1cccc(NC(=O)c2cccs2)c1 | < 70
53 | CN(CC(=O)Nc1ccc(Cl)c(C(F)(F)F)c1)Cc1ccc(O)c2ncccc12 | < 70
54 | CCOC(=O)c1c[nH]c2c(C)cc(Cl)cc2c1=O | < 70
55 | CC(C)(C)n1nc(-c2ccccc2)c2c(N)ncnc21 | < 70
56 | CCCCCn1c(=N)n(CC(O)COc2cccc(C)c2)c2ccccc21 (stereo not drawn) | < 70
57 | CC1COC2(CCN(c3nc(=O)c4cc(C(F)(F)F)cc([N+](=O)[O-])c4s3)CC2)O1 (stereo not drawn) | < 70
58 | O=C(NC1CCN(Cc2ccccc2)CC1)c1cc2nc(-c3ccc(Cl)s3)cc(C(F)(F)F)n2n1 | < 70
59 | COc1cccc(OCC(=O)c2ccc(Br)cc2)c1 | < 70
60 | CCOc1cc(Cl)c(C(C)NC(=O)c2ccccc2)cc1OCC (stereo not drawn) | < 70
61 | CC1CN(C(=O)c2ccc(S(=O)(=O)Nc3ccccc3F)cc2)CC(C)O1 (stereo not drawn) | < 70
62 | Cc1ccc(C(=O)COC(=O)Cc2n[nH]c(=O)c3ccccc23)s1 | < 70
63 | Cc1nccc(-c2cccc(N/N=C(\C#N)S(=O)(=O)c3ccccn3)c2)n1 | < 70
64 | Clc1cc2c(c3ncccc13)OCN(Cc1ccco1)C2 | < 70
65 | Nc1nccnc1C(=O)Nc1nc2cc3c(cc2s1)OCCO3 | < 70
66 | CCOc1ccc(Nc2ccnc3cc(Cl)ccc23)cc1 | < 70
67 | CCN(CC)S(=O)(=O)N1CCN(C(=O)c2[nH]nc3ccccc23)CC1 | < 70
68 | CN(Cc1ccc(C(N)=O)cc1)c1ncnc2ccccc12 | < 70
69 | CCN1CCN(c2cc(C)c3cc(NC(=O)c4ccc(OC)c(OC)c4)ccc3n2)CC1 | < 70
70 | COc1nc2ccc(Br)cc2cc1[C@@H](c1ccccc1)[C@@](O)(CCN(C)C)c1cccc2ccccc12 | < 70
71 | O=C(c1[nH]nc2c1CCCC2)N1CCN(Cc2ccc3c(c2)OCO3)CC1 | < 70
72 | Cc1cc(C)n(-c2nc(-c3ccccc3)cc(N3CCOCC3)n2)n1 | < 70

Row | SMILES | growth inhibition at single dose [%]
73 | NC(=O)c1cc(-c2ccsc2)ccc1OCCOc1ccccc1 | < 70
74 | O=C(Nc1nc(CN2CCOCC2)cs1)c1ccc(-c2ccccc2)cc1 | < 70
75 | CCCn1c(CNc2ccccc2O)nc2ccccc21 | < 70
76 | COc1ccc(CCNC(=O)c2cc(S(=O)(=O)N3CC(C)CC(C)C3)ccc2Sc2ccc(F)cc2)cc1OC (stereo not drawn) | < 70
77 | Nc1ncnc2[nH]nc(Cc3cccc4ccccc34)c12 | < 70
78 | Cc1cc(Nc2ccc(Cl)cc2)n2nc(C(F)(F)F)nc2n1 | < 70
79 | Cc1ccc(C2CC(C(F)(F)F)n3nc(C(=O)N4CCN(C(c5ccccc5)c5ccccc5)CC4)cc3N2)cc1 (stereo not drawn) | < 70
80 | COCC(C)n1c(C)cc(C(=O)COC(=O)c2cccn2C)c1C (stereo not drawn) | < 70
81 | NC(=O)c1cc(NC(=O)c2cccs2)ccc1N1CCCCC1 | < 70
82 | CCc1cccc2c(C(=O)COC(=O)C34CC5CC(CC(O)(C5)C3)C4)c[nH]c12 | < 70
83 | CCOC(=O)c1ccc(Oc2nc3ccccc3nc2C(C#N)C(=O)OC)cc1 (stereo not drawn) | < 70
84 | CC(C)(C)C(=O)N(CCCCCCN1C[C@H](O)[C@@H](O)[C@H](O)[C@H]1CO)C1CCCCCC1 | < 70
85 | CC(C)n1ncc2c(C(=O)NCC(c3cccs3)N3CCOCC3)cc(-c3ccccc3)nc21 (stereo not drawn) | < 70
86 | Cc1ccc(S(=O)(=O)c2c(COC(=O)c3cccc(C)c3)c(-c3ccccc3)nn2C)cc1 | < 70
87 | CCN(CC)CCCNc1ccnc2cc3ccccc3cc12 | < 70
88 | COc1ccc(OC(C)C(=O)Nc2ccc(Cl)cc2C)cc1 (stereo not drawn) | < 70
89 | Cc1ccc(C)c(-c2csc(Nc3ccc(C)c(C)c3)n2)c1 | < 70
90 | CC(C)Cn1c2c(c(O)c(C(=O)Nc3ncccc3O)c1=O)CCCC2 | < 70
91 | COc1cccc(O)c1CN1CCC2(CCCN(Cc3ccc(F)cc3)C2)C1 (stereo not drawn) | < 70
92 | CC(C)(CN)c1nc(-c2ccc(Cl)c(O)c2)c(-c2ccnc(N)n2)[nH]1 | < 70
93 | FC(F)(F)c1nnc2ccc(Cl)nn12 | < 70
